Measurements: ChEMBL document CHEMBL1124311, “Synthesis and antiallergy activity of 4-(diarylhydroxymethyl)-1-[3-(aryloxy)propyl]piperidines and structurally related compounds” (J Med Chem, 1989)

Legend:
Format in all cases: functional, organism-based
Rattus norvegicus [1] = test: Oral antiallergy activity in the passive foot anaphylaxis (PFA) model of rat, at a dose of 10 (mg/kg); Activity equal to positive control group
Rattus norvegicus [2] = test: Oral antiallergy activity in the passive foot anaphylaxis (PFA) model of rat, at a dose of 10 (mg/kg); not significantly different from negative control group
Rattus norvegicus [3] = test: Oral antiallergy activity in the passive foot anaphylaxis (PFA) model of rat, at a dose of 10 (mg/kg); Activity between positive and negative control groups
Rattus norvegicus [4] = test: Oral antiallergy activity in the passive foot anaphylaxis (PFA) model of rat, at a dose of 3.16 (mg/kg); not significantly different from negative control group
Rattus norvegicus [5] = test: Oral antiallergy activity in the passive foot anaphylaxis (PFA) model of rat, at a dose of 3.16 (mg/kg); Activity between positive and negative control groups

Structure (SMILES): OC(c1ccccc1)(c1ccccc1)C1CCN(CCCOc2ccccc2)CC1
- PFA (Rattus norvegicus [1]): Activity equal to positive control group

Structure (SMILES): COc1cc(C(C)=O)ccc1OCCCN1CCC(C(O)(Cc2ccc(F)cc2)c2ccc(F)cc2)CC1 (configuration not stated)
- PFA (Rattus norvegicus [2]): Not significantly different from negative control group

Structure (SMILES): N#Cc1ccc(OCCCN2CCC(C(O)(c3ccc(F)cc3)c3ccc(F)cc3)CC2)cc1
- PFA (Rattus norvegicus [2]): Not significantly different from negative control group

Structure (SMILES): COC(=O)c1ccc(OCCCN2CCC(C(O)(c3ccccc3)c3ccccc3)CC2)cc1
- PFA (Rattus norvegicus [2]): Not significantly different from negative control group

Structure (SMILES): CC(=O)c1cccc(OCCCN2CCC(C(O)(c3ccc(F)cc3)c3ccc(F)cc3)CC2)c1
- PFA (Rattus norvegicus [3]): Activity between positive and negative control groups
- PFA (Rattus norvegicus [4]): Activity between positive and negative control groups

Structure (SMILES): COc1cc(C(C)=O)ccc1OCCCN1CCC(C(OC)(c2ccccc2)c2ccccc2)CC1
- PFA (Rattus norvegicus [5]): Activity between positive and negative control groups

Structure (SMILES): O=C(c1ccccc1)c1ccc(OCCCN2CCC(C(O)(c3ccc(F)cc3)c3ccc(F)cc3)CC2)cc1
- PFA (Rattus norvegicus [3]): Activity between positive and negative control groups
- PFA (Rattus norvegicus [4]): Activity between positive and negative control groups

Structure (SMILES): OC(CCCN1CCC(C(O)(c2ccc(F)cc2)c2ccc(F)cc2)CC1)c1ccccc1 (configuration not stated)
- PFA (Rattus norvegicus [3]): Activity between positive and negative control groups
- PFA (Rattus norvegicus [5]): Activity between positive and negative control groups

Structure (SMILES): OC(c1ccc(F)cc1)(c1ccc(F)cc1)C1CCN(CCCNc2ccccc2)CC1
- PFA (Rattus norvegicus [3]): Activity between positive and negative control groups
- PFA (Rattus norvegicus [5]): Activity between positive and negative control groups

Structure (SMILES): COc1cc(C(C)=O)ccc1OCCCCCN1CCC(C(O)(c2ccc(F)cc2)c2ccc(F)cc2)CC1
- PFA (Rattus norvegicus [3]): Activity between positive and negative control groups
- PFA (Rattus norvegicus [5]): Activity between positive and negative control groups

Structure (SMILES): OC(c1ccc(F)cc1)(c1ccc(F)cc1)C1CCN(CCCOc2ccc(F)cc2)CC1
- PFA (Rattus norvegicus [2]): Not significantly different from negative control group

Structure (SMILES): COc1cc(C(C)=O)ccc1OCCCCCCN1CCC(C(O)(c2ccc(F)cc2)c2ccc(F)cc2)CC1
- PFA (Rattus norvegicus [2]): Not significantly different from negative control group

Structure (SMILES): OC(c1ccc(F)cc1)(c1ccc(F)cc1)C1CCN(CCCSc2ccccc2)CC1
- PFA (Rattus norvegicus [3]): Activity between positive and negative control groups

Structure (SMILES): COc1cccc(OC)c1OCCCN1CCC(C(O)(c2ccc(F)cc2)c2ccc(F)cc2)CC1
- PFA (Rattus norvegicus [3]): Activity between positive and negative control groups
- PFA (Rattus norvegicus [4]): Activity between positive and negative control groups

Structure (SMILES): COc1cc(C(C)=O)ccc1OCCCN1CCC(CC(O)(c2ccc(F)cc2)c2ccc(F)cc2)C1 (configuration not stated)
- PFA (Rattus norvegicus [2]): Not significantly different from negative control group

Structure (SMILES): COc1cc(C(C)=O)ccc1OCCCN1CCC(C(O)(c2ccccc2)C2CCCCC2)CC1 (configuration not stated)
- PFA (Rattus norvegicus [2]): Not significantly different from negative control group

Structure (SMILES): Cc1ccccc1OCCCN1CCC(C(O)(c2ccc(F)cc2)c2ccc(F)cc2)CC1
- PFA (Rattus norvegicus [3]): Activity between positive and negative control groups

Structure (SMILES): CN(CCCN1CCC(C(O)(c2ccc(F)cc2)c2ccc(F)cc2)CC1)c1ccccc1
- PFA (Rattus norvegicus [3]): Activity between positive and negative control groups
- PFA (Rattus norvegicus [5]): Activity between positive and negative control groups

Structure (SMILES): COc1cc(C(C)=O)ccc1OCCCN1CCC(C(C(N)=O)(c2ccccc2)c2ccccc2)CC1
- PFA (Rattus norvegicus [2]): Not significantly different from negative control group

Structure (SMILES): CCOC(=O)C(=O)Nc1ccc(OCCCN2CCC(C(O)(c3ccc(F)cc3)c3ccc(F)cc3)CC2)cc1
- PFA (Rattus norvegicus [2]): Not significantly different from negative control group

Structure (SMILES): O=S(=O)(CCCN1CCC(C(O)(c2ccc(F)cc2)c2ccc(F)cc2)CC1)c1ccccc1
- PFA (Rattus norvegicus [2]): Not significantly different from negative control group

Structure (SMILES): COc1cc(C(C)=O)ccc1OCCCN1CCC(C(c2ccccc2)c2ccccc2)CC1
- PFA (Rattus norvegicus [1]): Activity equal to positive control group

Structure (SMILES): COc1cc(OCCCN2CCC(C(O)(c3ccc(F)cc3)c3ccc(F)cc3)CC2)ccc1C(C)=O
- PFA (Rattus norvegicus [3]): Activity between positive and negative control groups

Structure (SMILES): OC(c1ccc(F)cc1)(c1ccc(F)cc1)C1CCN(CCCC2OCOC2c2ccccc2)CC1 (configuration not stated)
- PFA (Rattus norvegicus [3]): Activity between positive and negative control groups

Structure (SMILES): COc1cc(C(C)=O)ccc1OCCCN1CCC(C(C#N)(c2ccccc2)c2ccccc2)CC1
- PFA (Rattus norvegicus [2]): Not significantly different from negative control group

Structure (SMILES): NS(=O)(=O)c1ccc(OCCCN2CCC(C(O)(c3ccc(F)cc3)c3ccc(F)cc3)CC2)cc1
- PFA (Rattus norvegicus [3]): Activity between positive and negative control groups
- PFA (Rattus norvegicus [4]): Activity between positive and negative control groups

Structure (SMILES): COc1cc(C(C)=O)ccc1OCCCN1CCCCC1
- PFA (Rattus norvegicus [2]): Not significantly different from negative control group

Structure (SMILES): COc1cc(C(C)=O)ccc1OCCCN1CCC(C(O)(c2ccccc2)c2cccc(C(F)(F)F)c2)CC1 (configuration not stated)
- PFA (Rattus norvegicus [2]): Not significantly different from negative control group

Structure (SMILES): COc1cc(C(C)=O)ccc1OCCCN1CCC(c2ccccc2)CC1
- PFA (Rattus norvegicus [2]): Not significantly different from negative control group

Structure (SMILES): COc1cc(C(C)=O)ccc1OCCCN1CCC(CC(O)(c2ccc(F)cc2)c2ccc(F)cc2)CC1
- PFA (Rattus norvegicus [2]): Not significantly different from negative control group

Structure (SMILES): COc1cc(C(C)=O)ccc1OCCCN1CCCC(C(O)(c2ccc(F)cc2)c2ccc(F)cc2)C1 (configuration not stated)
- PFA (Rattus norvegicus [2]): Not significantly different from negative control group

Structure (SMILES): COc1cc(C(C)=O)ccc1OCCCN1CCN(C(=O)c2ccccc2)CC1
- PFA (Rattus norvegicus [2]): Not significantly different from negative control group

Structure (SMILES): COc1cc(C(C)=O)ccc1OCCN1CCC(C(O)(c2ccc(F)cc2)c2ccc(F)cc2)CC1
- PFA (Rattus norvegicus [1]): Activity equal to positive control group

Structure (SMILES): COc1cc(C(C)=O)ccc1OCCCN1CCC(C(O)(c2ccc(Cl)cc2)c2ccc(Cl)cc2)CC1
- PFA (Rattus norvegicus [2]): Not significantly different from negative control group

Structure (SMILES): OC(c1ccc(F)cc1)(c1ccc(F)cc1)C1CCN(CCCOc2ccccc2OCc2ccccc2)CC1
- PFA (Rattus norvegicus [3]): Activity between positive and negative control groups

Structure (SMILES): O=C(CCCN1CCC(C(O)(c2ccc(F)cc2)c2ccc(F)cc2)CC1)c1ccccc1
- PFA (Rattus norvegicus [2]): Not significantly different from negative control group

Structure (SMILES): OC(c1ccc(F)cc1)(c1ccc(F)cc1)C1CCN(CCCOc2ccc(-c3ccccc3)cc2)CC1
- PFA (Rattus norvegicus [2]): Not significantly different from negative control group

Structure (SMILES): COc1cccc(OCCCN2CCC(C(O)(c3ccc(F)cc3)c3ccc(F)cc3)CC2)c1
- PFA (Rattus norvegicus [3]): Activity between positive and negative control groups
- PFA (Rattus norvegicus [4]): Activity between positive and negative control groups

Structure (SMILES): COc1cc(C(C)=O)ccc1OCCCN1CCC(C(O)(c2ccc(F)c(F)c2)c2ccc(F)c(F)c2)CC1
- PFA (Rattus norvegicus [2]): Not significantly different from negative control group

Structure (SMILES): C[S+]([O-])c1ccc(OCCCN2CCC(C(O)(c3ccc(F)cc3)c3ccc(F)cc3)CC2)cc1 (configuration not stated)
- PFA (Rattus norvegicus [3]): Activity between positive and negative control groups
- PFA (Rattus norvegicus [4]): Activity between positive and negative control groups

Structure (SMILES): COc1ccc(C(O)(c2ccc(OC)cc2)C2CCN(CCCOc3ccc(C(C)=O)cc3OC)CC2)cc1
- PFA (Rattus norvegicus [2]): Not significantly different from negative control group

Structure (SMILES): COc1cc(C(C)=O)ccc1OCCCN1CCC(C(O)(c2ccc(C)cc2)c2ccc(C)cc2)CC1
- PFA (Rattus norvegicus [2]): Not significantly different from negative control group

Structure (SMILES): COc1cc(C(C)=O)ccc1OCCCN1CCN(C(c2ccccc2)c2ccccc2)CC1
- PFA (Rattus norvegicus [1]): Activity equal to positive control group

Structure (SMILES): CCOC(=O)c1cccc(OCCCN2CCC(C(O)(c3ccc(F)cc3)c3ccc(F)cc3)CC2)c1
- PFA (Rattus norvegicus [3]): Activity between positive and negative control groups
- PFA (Rattus norvegicus [4]): Activity between positive and negative control groups

Structure (SMILES): COc1cc(C(C)=O)ccc1OCCCN1CCCC(CC(O)(c2ccc(F)cc2)c2ccc(F)cc2)C1 (configuration not stated)
- PFA (Rattus norvegicus [2]): Not significantly different from negative control group

Structure (SMILES): CC(C)(C)c1ccc(OCCCN2CCC(C(O)(c3ccc(F)cc3)c3ccc(F)cc3)CC2)cc1
- PFA (Rattus norvegicus [2]): Not significantly different from negative control group

Structure (SMILES): COc1cc(C(C)=O)ccc1OCCCN1CCC(C(O)(c2ccc(F)cc2)c2ccc(F)cc2)C1 (configuration not stated)
- PFA (Rattus norvegicus [2]): Not significantly different from negative control group

Structure (SMILES): COc1cc(C(C)=O)ccc1OCCCN1CCC(C(O)(c2cccc(F)c2)c2cccc(F)c2)CC1
- PFA (Rattus norvegicus [2]): Not significantly different from negative control group

Structure (SMILES): OC(c1ccc(F)cc1)(c1ccc(F)cc1)C1CCN(CCCOc2ccc(Cl)cc2)CC1
- PFA (Rattus norvegicus [2]): Not significantly different from negative control group

Structure (SMILES): COc1cc(C(C)=O)ccc1OCCCN1CCC(C(=O)c2ccccc2)CC1
- PFA (Rattus norvegicus [1]): Activity equal to positive control group

Structure (SMILES): CC(C)c1ccc(OCCCN2CCC(C(O)(c3ccc(F)cc3)c3ccc(F)cc3)CC2)cc1
- PFA (Rattus norvegicus [3]): Activity between positive and negative control groups
- PFA (Rattus norvegicus [4]): Activity between positive and negative control groups

Structure (SMILES): CC(=O)c1ccccc1OCCCN1CCC(C(O)(c2ccc(F)cc2)c2ccc(F)cc2)CC1
- PFA (Rattus norvegicus [3]): Activity between positive and negative control groups
- PFA (Rattus norvegicus [4]): Activity between positive and negative control groups

Structure (SMILES): COc1cc(C(C)=O)ccc1OCCCN1CCC(Cc2ccccc2)CC1
- PFA (Rattus norvegicus [2]): Not significantly different from negative control group

Structure (SMILES): COc1cc(C(C)=O)ccc1OCCCN1CCN(c2ccccc2)CC1
- PFA (Rattus norvegicus [1]): Activity equal to positive control group

Structure (SMILES): CCN(CCCOc1ccc(C(C)=O)cc1OC)CCCC(O)(c1ccc(F)cc1)c1ccc(F)cc1
- PFA (Rattus norvegicus [2]): Not significantly different from negative control group

Structure (SMILES): COC(=O)c1ccc(OCCCCN2CCC(C(O)(c3ccc(F)cc3)c3ccc(F)cc3)CC2)cc1
- PFA (Rattus norvegicus [3]): Activity between positive and negative control groups
- PFA (Rattus norvegicus [4]): Activity between positive and negative control groups

Structure (SMILES): COc1cc(C(C)=O)ccc1OCCCN1CCN(Cc2ccccc2)CC1
- PFA (Rattus norvegicus [2]): Not significantly different from negative control group

Structure (SMILES): COc1cc(C(C)=O)ccc1OCCCN1CCC(C(O)(c2ccc(F)cc2)c2ccccn2)CC1 (configuration not stated)
- PFA (Rattus norvegicus [5]): Activity between positive and negative control groups
